Experimental data as given in patent US5962534A, “Regulating gene expression using retinoids with CH2 OH or related groups at the side chain terminal position” (Cornell Research Foundation, Inc., priority 1997, dated 1999).
Where two headings read alike, the source gives them in different places. Values belong to the compound of their own block, whether it stands above or below them.

Columns and labels:
RAR-α = target: T1, RAR-α (Mus musculus, UniProt P11416); assay: Competitive binding of 3H-all-trans-retinoic acid to RAR-α; conditions: concentration to inhibit 50% binding of 3H-all-trans-retinoic acid (10 nM); mean ± SD, at least 3 replicate experiments
T1 construct: expressed in transfected cells; host or cells: COS-1
T1 sequence (P11416 1-462): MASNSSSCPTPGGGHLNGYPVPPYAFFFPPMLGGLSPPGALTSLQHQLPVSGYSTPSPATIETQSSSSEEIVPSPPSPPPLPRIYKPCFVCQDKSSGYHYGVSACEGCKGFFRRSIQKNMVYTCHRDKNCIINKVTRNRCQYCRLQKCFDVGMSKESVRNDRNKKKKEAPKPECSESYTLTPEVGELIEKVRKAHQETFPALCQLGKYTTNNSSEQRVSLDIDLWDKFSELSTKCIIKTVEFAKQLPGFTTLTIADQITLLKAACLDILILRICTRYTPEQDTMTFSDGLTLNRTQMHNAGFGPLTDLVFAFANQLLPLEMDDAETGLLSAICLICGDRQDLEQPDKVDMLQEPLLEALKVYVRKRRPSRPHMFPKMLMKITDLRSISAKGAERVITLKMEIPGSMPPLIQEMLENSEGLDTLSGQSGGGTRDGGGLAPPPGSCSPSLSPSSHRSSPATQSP
Experimental: (§6) Retinoids were assayed for their ability to bind members of the family of the retinoic acid receptors, the RARs, as follows:
(§7) COS-1 cells were transfected by DEAE-dextran with pSG5 expression vectors containing cDNAs for mouse RARs α, β, or γ or RXRs α, β, or γ. […] Nucleosol or cytosol fractions were prepared as described in Nervi, C., et al (30) and Nervi, C., et al (31) and stored at -70° C. until use. Aliquots of nucleosol or cytosol were incubated in nuclei lysis buffer as described in Nervi, C., et al (30) with tritiated ligands for 4 h at 4° C. […] For competitive binding assays, the incubations were performed with increasing concentrations of unlabeled competing ligand and a fixed concentration of the radioligand (10 nM ^3 H-retinoic acid). In saturation kinetic studies, incubations were performed in the presence of increasing concentrations of the indicated radioligand. For all binding assays, bound was separated from free radioactivity as described in Levin, A. A., et al (29).

RXRs α, β, or γ = assay: Inhibition of 3H-9-cis retinoic acid binding to RXRs; set-up: species or system mouse; conditions: for inhibition of 3H-9-cis retinoic acid binding to RXRs: data not shown
Excerpt: See Levin, A. A., et al (29).

[1] = tested on: cellular retinoic acid binding protein I (CRABP I); assay: Inhibition of all-trans-3H-retinoic acid binding to CRABP I; conditions: data not shown
[2] = tested on: RARE-β-galactosidase (F9-RARE-β-galactosidase reporter cell line); assay: Transcription of RARE-β-galactosidase in F9-RARE-β-galactosidase reporter cell line; assay type: cell-based; conditions: Mus musculus; media lacking serum
Experimental: Cells were treated with different concentrations of retinoids in media lacking serum, harvested and assayed for β-galactosidase activity. […] The β-galactosidase activity in this cell line reflects the activation of the RARs.

Hoxa-1 = Hoxa-1 gene expression in F9 stem cells by Northern blot; assay type: cell-based; conditions: Mus musculus, F9, 72 h, read-out: Hoxa-1 transcripts induction
Excerpt: (§1) Teratocarcinoma stem cells can be induced to differentiate in monolayer culture by retinoic acid over a 3-4 day period into nonmalignant endoderm cells resembling the extraembryonic endoderm of the mouse blastocyst as described in Gudas, L. J., et al (27). The F9 teratocarcinoma stem cell line is used as a model tumor cell differentiation system because F9 stem cells share similar biochemical, immunological and morphological characteristics with early mouse embryonic stem cells and additionally, large numbers of cells can be cultured and experimentally manipulated. The expression of several homeobox genes including Hoxa-1 is induced by RA in mouse teratocarcinoma cell lines as described in LaRosa, G. J., et al (34) and LaRosa, G. J., et al (35). […] See LaRosa, G. L, et al (34). Other genes such as laminin B1 are activated subsequent to the activation of Hox 1.6 by retinoic acid as described in Vasios, G. W., et al (36).

laminin B1 = assay: Laminin B1 gene expression in F9 stem cells by Northern blot; assay type: cell-based; conditions: Mus musculus, F9, 72 h, read-out: Laminin B1 expression induction
Excerpt: as §1

[3] = Metabolism of 3H-4-hydroxyretinol in F9 cells (HPLC); assay type: in vitro ADME, mouse; conditions: mouse, f9 cells; 50 nM, 15 h; virtually identical in stem and retinoic acid-treated cells; read-out: conversion of 4-hydroxyretinol to 4-oxo-retinol
Experimental: (§2) ^3 H-4-hydroxyretinol and ^3 H-4-oxo-retinol were purified from RA treated, differentiated F9 cells (ATCC CRL 1720) after the differentiated cells were incubated with ^3 H-retinol for 18 h. The identities of purified ^3 H-4-hydroxyretinol and ^3 H-4-oxo-retinol were verified by matching both the elution times on the HPLC and the spectra of known standards.
(§3) F9 stem cells or retinoic acid-treated cells (72 h) were cultured in the presence of 50 nM of either ^3 H-4-hydroxyretinol or ^3 H-4-oxo-retinol for different periods of time.
(§4) FIGS. 4A-4D depict HPLC analysis after incubation in the presence of 50 nM ^3 H-4-hydroxyretinol for periods of time as indicated and extraction using the method described in McClean, S. W., et al (15). F9 stem cells are shown in FIGS. 4A-4D to convert 4-hydroxyretinol to 4-oxo-retinol. The rate of this conversion was virtually identical in both stem and retinoic acid-treated cells. This rate was calculated to be about 20% in a period of 15 h.

F9 stem cells [4] = assay: as above; assay type: in vitro ADME, mouse; conditions: besides 4-oxo-retinol; 50 nM
Experimental: as §2, §3, §4

[5] = tested on: advanced head and neck cancer; assay: Treatment of patients with advanced head and neck cancer; assay type: in vivo, human; conditions: oral, 100 mg/square meter per day; for survival beyond the median: and/or reduced tumor burden
Excerpt: Current systemic chemotherapy regimens are unable to prolong survival of patients with advanced head and neck cancer.

breast cancer = assay: Treatment of patients with breast cancer; assay type: in vivo, human; conditions: oral, 100 mg/square meter per day
deep (cystic) acne = assay: Treatment of patients with deep (cystic) acne; assay type: in vivo, human; conditions: oral, 100 mg/square meter per day; for mean reduction in lesion counts: end of 3 to 6 months; for acne clearance: after discontinuation
Excerpt: A very prolonged remission, and potentially permanent cure can be obtained.

psoriatic arthritis = assay: Treatment of patients with psoriatic arthritis; assay type: in vivo, human; conditions: oral, 50 mg/square meter per day
[6] = tested on: aging or photodamaged skin; assay: Treatment of patients with aging or photodamaged skin; assay type: in vivo, human; conditions: oral 100 mg/square meter per day or topical 10 mg per square inch per day, 4 to 8 months
RAR-β = target: T2, RAR-β (Mus musculus, UniProt P22605); assay: Competitive binding of 3H-all-trans-retinoic acid to RAR-β
T2 sequence (P22605 1-448 isoform P22605-3): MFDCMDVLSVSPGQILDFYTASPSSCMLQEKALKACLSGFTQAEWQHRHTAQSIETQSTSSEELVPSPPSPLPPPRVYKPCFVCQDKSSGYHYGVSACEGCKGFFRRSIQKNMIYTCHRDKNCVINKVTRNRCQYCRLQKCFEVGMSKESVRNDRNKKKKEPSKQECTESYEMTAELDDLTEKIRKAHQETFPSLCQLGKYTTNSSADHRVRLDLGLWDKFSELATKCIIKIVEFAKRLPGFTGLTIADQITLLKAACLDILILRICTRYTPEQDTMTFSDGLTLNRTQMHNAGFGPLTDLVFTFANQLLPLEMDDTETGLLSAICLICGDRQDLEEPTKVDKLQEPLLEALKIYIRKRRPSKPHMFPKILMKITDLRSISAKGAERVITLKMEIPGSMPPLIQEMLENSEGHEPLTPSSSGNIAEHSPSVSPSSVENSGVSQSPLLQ
Experimental: as §6, §7

RAR-γ = target: T3, RAR-γ (Mus musculus, UniProt P18911); assay: Competitive binding of 3H-all-trans-retinoic acid to RAR-γ
T3 sequence (P18911 1-458): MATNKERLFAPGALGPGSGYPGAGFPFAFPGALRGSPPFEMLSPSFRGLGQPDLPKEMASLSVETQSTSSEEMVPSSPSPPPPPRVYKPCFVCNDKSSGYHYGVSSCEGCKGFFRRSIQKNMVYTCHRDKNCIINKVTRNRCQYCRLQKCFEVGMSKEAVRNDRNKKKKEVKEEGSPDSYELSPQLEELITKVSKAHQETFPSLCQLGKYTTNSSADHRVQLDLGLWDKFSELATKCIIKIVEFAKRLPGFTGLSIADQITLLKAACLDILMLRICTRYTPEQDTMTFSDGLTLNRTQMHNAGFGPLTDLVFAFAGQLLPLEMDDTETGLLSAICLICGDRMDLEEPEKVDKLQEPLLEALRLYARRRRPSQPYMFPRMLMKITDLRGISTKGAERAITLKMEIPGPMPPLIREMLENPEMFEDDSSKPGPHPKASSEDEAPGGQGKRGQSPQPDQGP
Experimental: as §6, §7

[7] = Metabolism / half-life of retinoids in F9 cells; assay type: in vitro ADME, mouse; conditions: mouse; 50 nM; F9 stem or differentiating cells; FIG. 5
Experimental: as §2, §3
(§5) FIGS. 5A-5D depict HPLC analysis after incubation in the presence of 50 nM ^3 H-4-oxo-retinol for periods of time as indicated and extraction using the method described in McClean, S. W., et al (15). The results are the same in both stem and retinoic acid- treated cells.

F9 stem cells [8] = assay: Metabolism / half-life of retinoids in F9 cells; assay type: in vitro ADME, mouse
Experimental: as §2, §3, §5

Water solubility = assay type: physicochemical; conditions: no data shown
[9] = tested on: acute promyelocytic leukemia; assay: Treatment of acute promyelocytic leukemia patients; assay type: in vivo, human; conditions: oral, 100 mg/square meter per day
Experimental: Patients with morphologic diagnostic criteria for acute promyelocytic leukemia (M3 or M3 variant subtype) by karyotyping or PCR analysis, including the […] (q22; q12-21) translocation, are treated with oral all-trans-4-oxo-retinol at a dose of 100 mg/square meter of body surface area per day. The drug is formulated in soft gelatin capsules which are administered once or twice a day to provide the dose as stated. The drug is administered for 40 to 60 days until remission induction occurs as indicated by normal karyotype, disappearance of coagulation abnormalities (e.g., increased platelet count and plasma fibrinogen level), observation of differentiation of cancer cells and the appearance of mature granulocytic markers in cell surface immunophenotyping, as indicated by reduced number of cells expressing CD33 and greater portion of cells expressing CD16. Patients with newly diagnosed disease then receive all-trans-4-oxo-retinol for 30 days after remission induction; then, either conventional consolidation therapy (e.g., cytosine arabinoside) or continued treatment with all-trans-4-oxo-retinol alone is continued. During remission induction, liver function tests are performed and serum cholesterol and triglycerides are measured twice a week and bone marrow aspiration is performed once a week until complete remission or failure is documented.

F9 stem cells [10] = assay: Intracellular concentration in differentiating F9 stem cells; assay type: in vitro ADME, mouse; conditions: calculated
RARs α, β, or γ [11] = conditions: Mangelsdorf et al (14); cited from earlier work
F9 stem cells [12] = conditions: refs (37), (38), cited from earlier work
RARs α, β, or γ [13] = assay: Inhibition of 3H-all-trans-retinoic acid binding to RARs (stated for all subtypes together); conditions: concentrations up to 50,000 nM
Experimental: as §6, §7

Compound: CC1=C(/C=C/C(C)=C/C=C/C(C)=C/CO)C(C)(C)CCC1O (stereo not drawn) [4-OH retinol]
- IC50 (RAR-α): 5000 ± 1400 nM
- inhibition of 3H-9-cis retinoic acid binding to RXRs (RXRs α, β, or γ): Neither the 4-hydroxyretinol nor the 4-oxo-retinol inhibited
- inhibition of binding of all-trans-3H-retinoic acid to CRABP I [1]: unable to inhibit
- EC50 [2]: 76 nM
- fold induction at 1 µM (Hoxa-1): 9
- fold induction at 1 µM (laminin B1): 3
- metabolised at 15 h, 0.05 µM [3]: ~20%
- other metabolites of 4-hydroxyretinol (F9 stem cells [4]): No other metabolite
- tumor burden, head and neck cancer [5]: reduced tumor burden
- survival beyond the median [5]: 4-6 months
- tumor burden, breast cancer (breast cancer): reduced tumor burden
- mean reduction in lesion counts (deep (cystic) acne): greater than 85%
- acne clearance (deep (cystic) acne): in some cases complete clearance occurs
- psoriatic arthritis symptoms (psoriatic arthritis): fewer tender joints and a decreased duration of morning stiffness
- wrinkles, smoothness, pigmented areas of skin [6]: fewer and reduced depth of wrinkles, increased smoothness of the skin, and a reduction in pigmented areas of the skin
- IC50 (RAR-β): 3800 ± 1100 nM
- IC50 (RAR-γ): 3400 ± 1600 nM

Compound: CC1=C(/C=C/C(C)=C/C=C/C(C)=C/CO)C(C)(C)CCC1=O [4-oxo-retinol, all-trans-4-oxo-retinol]
- IC50 (RAR-α): 330 ± 54 nM
- inhibition of 3H-9-cis retinoic acid binding to RXRs (RXRs α, β, or γ): Neither the 4-hydroxyretinol nor the 4-oxo-retinol inhibited
- inhibition of binding of all-trans-3H-retinoic acid to CRABP I [1]: unable to inhibit
- EC50 [2]: 42 nM
- fold induction at 1 µM (Hoxa-1): 25
- fold induction at 1 µM (laminin B1): 7
- half-life at 0.05 µM [7]: > 15 h
- half-life in F9 stem cells (F9 stem cells [8]; 50 nM, order of magnitude in words): on the order of days
- metabolites of 4-oxo-retinol detected (F9 stem cells [8]; 50 nM, presumed 4-oxo-retinyl esters): small amounts of several very hydrophobic retinoids
- stability in F9 stem vs differentiating cells (F9 stem cells [8]; comparison of F9 stem and differentiating cells): equally stable
- induction of enzyme degrading the retinoid (F9 stem cells [8]; summary statement, vs all-trans-retinoic acid): does not induce production of enzyme which degrades it to inactive form
- 4-oxo-retinoic acid formed from 4-oxo-retinol (F9 stem cells [8]; up to 15 h, 50 nM): No 4-oxo-retinoic acid was detected
- water solubility compared with all-trans-retinoic acid (Water solubility): more water soluble
- outcome of treatment in acute promyelocytic leukemia [9]: Long term cures are considered to be obtainable
- tumor burden, head and neck cancer [5]: reduced tumor burden
- survival beyond the median [5]: 4-6 months
- tumor burden, breast cancer (breast cancer): reduced tumor burden
- mean reduction in lesion counts (deep (cystic) acne): greater than 85%
- acne clearance (deep (cystic) acne): in some cases complete clearance occurs
- psoriatic arthritis symptoms (psoriatic arthritis): fewer tender joints and a decreased duration of morning stiffness
- wrinkles, smoothness, pigmented areas of skin [6]: fewer and reduced depth of wrinkles, increased smoothness of the skin, and a reduction in pigmented areas of the skin
- intracellular concentration (F9 stem cells [10]): approximately 85 nM
- IC50 (RAR-β): 420 ± 110 nM
- IC50 (RAR-γ): 3200 ± 520 nM
- inhibition of 3H-retinoic acid binding to RAR-γ, fold weaker than RAR-α and RAR-β (RAR-γ; relative to RAR-α and RAR-β, 240 min): 10 fold

Compound: CC1=C(/C=C/C(C)=C/C=C/C(C)=C/C(=O)O)C(C)(C)CCC1 [RA, all-trans-retinoic acid]
- EC50 [2]: 9 nM
- binding to α-, β- and γ-retinoic acid receptors (RARs α, β, or γ [11]): binds equally well to α-, β-, and γ-retinoic acid receptors
- half-life in differentiated retinoic acid-treated F9 stem cells (F9 stem cells [12]; differentiated, enzyme induced): < 3 h
- half-life in F9 stem cells (F9 stem cells [12]; undifferentiated): 3 h

- inhibition of 3H-9-cis retinoic acid binding to the RXRs (RXRs α, β, or γ; concentrations up to 50,000 nM): no apparent inhibition
- EC50 [2]: > 3000 nM
- inhibition of all-trans-3H-retinoic acid binding to any of the RARs (RARs α, β, or γ [13]): no apparent inhibition
Compound: CC1=C(/C=C/C(C)=C/C=C/C(C)=C/CO)C(C)(C)CCC1 [retinol, reference compound]
- fold induction at 1 µM (Hoxa-1): 4
- fold induction at 1 µM (laminin B1): 2
